Columns and labels:
[1] = Cmax in healthy human plasma at 250 mg, po administered as single dose; assay type: ADME, organism-based; parameters: dose 250 mg, route oral
Homo sapiens [2] = assay: Cmax in healthy human plasma after 250 mg oral dose, normalised for 70 kg subject; assay type: ADME, organism-based; parameters: dose 250 mg, route oral; conditions: in vivo
Homo sapiens [3] = assay: Dose normalized AUC (0 to infinity) in healthy human plasma at 100 mg, po administered as single dose; assay type: ADME, organism-based; parameters: dose 100 mg, time infinity, route oral; conditions: in vivo
[4] = AUC (0 to infinity) in healthy human plasma at 250 mg, po administered as single dose; assay type: ADME, organism-based; parameters: dose 250 mg, time infinity, route oral
[5] = Tmax in healthy human plasma at 250 mg, po administered as single dose; assay type: ADME, organism-based
[6] = Cmax in healthy human plasma at 50 mg, po administered as single dose; assay type: ADME, organism-based; parameters: dose 50 mg, route oral
Homo sapiens [7] = assay: Cmax in heathy human plasma after 100 mg oral dose, normalised for 70 kg subject; assay type: ADME, organism-based; parameters: dose 100 mg, route oral; conditions: in vivo
Homo sapiens [8] = assay: Dose normalized AUC (0 to infinity) in healthy human plasma at 250 mg, po administered as single dose; assay type: ADME, organism-based; parameters: dose 250 mg, route oral, time infinity; conditions: in vivo
Homo sapiens [9] = assay: Cmax in healthy human plasma after 50 mg oral dose, normalised for 70 kg subject; assay type: ADME, organism-based; parameters: dose 50 mg, route oral; conditions: in vivo
[10] = AUC (0 to infinity) in healthy human plasma at 25 mg, po administered as single dose; assay type: ADME, organism-based; parameters: dose 25 mg, time infinity, route oral
[11] = Tmax in healthy human plasma at 25 mg, po administered as single dose; assay type: ADME, organism-based
Homo sapiens [12] = assay: Cmax in healthy human plasma after 25 mg oral dose, normalised for 70 kg subject; assay type: ADME, organism-based; parameters: dose 25 mg, route oral; conditions: in vivo
Homo sapiens [13] = assay: Toxicity in healthy human assessed as adverse event occurrence at 100 mg, po administered as single dose; assay type: organism-based; conditions: in vivo
[14] = Half life in healthy human plasma at 50 mg, po administered as single dose; assay type: ADME, organism-based
[15] = AUC (0 to infinity) in healthy human plasma at 100 mg, po administered as single dose; assay type: ADME, organism-based; parameters: dose 100 mg, route oral, time infinity
Homo sapiens [16] = assay: Toxicity in healthy human assessed as adverse event occurrence at 50 mg, po administered as single dose; assay type: organism-based; conditions: in vivo
[17] = Half life in healthy human plasma at 25 mg, po administered as single dose; assay type: ADME, organism-based
[18] = Apparent oral clearance in healthy human plasma at 250 mg, po administered as single dose; assay type: ADME, organism-based
Homo sapiens [19] = assay: Toxicity in healthy human assessed as adverse event occurrence at 250 mg, po administered as single dose; assay type: organism-based; conditions: in vivo
Homo sapiens [20] = assay: Toxicity in healthy human assessed as adverse event occurrence at 25 mg, po administered as single dose; assay type: organism-based; conditions: in vivo
[21] = Half life in healthy human plasma at 250 mg, po administered as single dose; assay type: ADME, organism-based
[22] = Tmax in healthy human plasma at 50 mg, po administered as single dose; assay type: ADME, organism-based
[23] = AUC (0 to infinity) in healthy human plasma at 50 mg, po administered as single dose; assay type: ADME, organism-based; parameters: dose 50 mg, route oral, time infinity
Homo sapiens [24] = assay: Dose normalized AUC (0 to infinity) in healthy human plasma at 25 mg, po administered as single dose; assay type: ADME, organism-based; parameters: dose 25 mg, time infinity, route oral; conditions: in vivo
[25] = Cmax in healthy human plasma at 25 mg, po administered as single dose; assay type: ADME, organism-based; parameters: dose 25 mg, route oral
[26] = Apparent oral clearance in healthy human plasma at 50 mg, po administered as single dose; assay type: ADME, organism-based
[27] = Drug concentration in healthy human urine assessed as conjugated drug level at 250 mg, po administered as single dose after 48 hrs; assay type: ADME, organism-based; conditions: in vivo
[28] = Apparent oral clearance in healthy human plasma at 100 mg, po administered as single dose; assay type: ADME, organism-based
[29] = Apparent oral clearance in healthy human plasma at 25 mg, po administered as single dose; assay type: ADME, organism-based
[30] = Tmax in healthy human plasma at 100 mg, po administered as single dose; assay type: ADME, organism-based
[31] = Half life in healthy human plasma at 100 mg, po administered as single dose; assay type: ADME, organism-based
[32] = Drug concentration in healthy human urine assessed as unconjugated drug level at 250 mg, po administered as single dose after 48 hrs; assay type: ADME, organism-based; conditions: read-out: Drug uptake
Homo sapiens [33] = assay: Dose normalized AUC (0 to infinity) in healthy human plasma at 50 mg, po administered as single dose; assay type: ADME, organism-based; parameters: dose 50 mg, time infinity, route oral; conditions: in vivo

C=C(C)[C@@H]1CC[C@]2(C(=O)O)CC[C@]3(C)[C@H](CC[C@@H]4[C@@]5(C)CC[C@H](OC(=O)CC(C)(C)C(=O)O)C(C)(C)[C@@H]5CC[C@]43C)[C@@H]12 [BEVIRIMAT]
Cmax [1]: 30.1 µg/mL | Cmax (Homo sapiens [2]): 31.1 µg/mL | AUC (Homo sapiens [3]): 1014 µg·h/mL | AUC(0-inf) [4]: 1800 µg·h/mL | Tmax [5]: 2.5 h | Cmax [6]: 6.06 µg/mL | Cmax (Homo sapiens [7]): 14.9 µg/mL | AUC (Homo sapiens [8]): 2221.8 µg·h/mL | Cmax (Homo sapiens [9]): 7.3 µg/mL | AUC(0-inf) [10]: 151 µg·h/mL | Tmax [11]: 1.75 h | Cmax (Homo sapiens [12]): 2.8 µg/mL | Activity (Homo sapiens [13]): 50% | half-life [14]: 56.7 h | AUC(0-inf) [15]: 983 µg·h/mL | Activity (Homo sapiens [16]): 16.7% | half-life [17]: 55.8 h | CL/F [18]: 2.43 mL/h/kg | Activity (Homo sapiens [19]): 33.3% | Activity (Homo sapiens [20]): 16.7% | half-life [21]: 69 h | Tmax [22]: 1 h | AUC(0-inf) [23]: 312 µg·h/mL | AUC (Homo sapiens [24]): 170.2 µg·h/mL | Cmax [25]: 2.24 µg/mL | CL/F [26]: 2.76 mL/h/kg | Drug uptake [27]: 0.82 %ID | CL/F [28]: 1.75 mL/h/kg | CL/F [29]: 2.89 mL/h/kg | Tmax [30]: 2 h | half-life [31]: 75.4 h | dose excreted at 48 h [32]: 0.82% | AUC (Homo sapiens [33]): 362.1 µg·h/mL

— ChEMBL document CHEMBL1143419, “Safety and pharmacokinetics of Bevirimat (PA-457), a novel inhibitor of human immunodeficiency virus maturation, in healthy volunteers” (Antimicrob Agents Chemother, 2007)
